Data: US4346102A, “3H-Dihydrofuranone-2 derivatives and pharmaceutical use thereof” (Delalande S.A., priority 1979, dated 1982)
Where two headings read alike, the source gives them in different places.

Legend:
[1] = test system: ptosis (reserpine); test: Test A: antagonism with respect to ptosis observed one hour after intravenous injection of reserpine in mice; assay type: in vivo; details: Mus musculus, 1 h, read-out: Test A ED 50
Protocol: Test A: Antagonism with respect to ptosis observed one hour after an intravenous injection (2 mg/kg) of reserpine given to mice according to the protocol described by GOURET C. and THOMAS J. in J. Pharmacol. (Paris, (1973), 4, 401.

[2] = test system: generalized trembling caused by dl-5-hydroxytryptophane; test: Test B: potentialization in mice of generalized trembling caused by dl-5-hydroxytryptophane; assay type: in vivo; details: Mus musculus, read-out: Test B ED 50
Text: Test B: Potentialization in mice of generalized trembling caused by an intraperitoneal injection of dl-5-hydroxytryptophane, according to the protocol described by GOURET C. and RAYNAUD G. in J. Pharmacol. (Paris), (1974), 5, 231.

[3] = Acute toxicity, LD 50 in mice, oral; details: mouse, in vivo
[4] = mice, oral, ptosis one hour after reserpine 2 mg/kg i.v.
[5] = mice, oral, dl-5-hydroxytryptophane i.p.

Row | Structure (SMILES) | ED50 [1, 4] [mg/kg] | ED50 [2, 5] [mg/kg] | LD50 [3] [mg/kg] | ED50 ([1]; po) [mg/kg] | ED50 ([2]; po) [mg/kg]
1 | O=C1OC(CO)CC1c1ccc(OCc2cccc([N+](=O)[O-])c2)cc1 (stereo not drawn) [Compound 6, 3-para(metanitrobenzyloxy)phenyl-5-hydroxymethyl-3H-dihydrofuranone-2] | 1.4 | 1.5 | – | – | –
2 | COCC1C=C(c2ccc(OCc3cccc([N+](=O)[O-])c3)cc2)C(=O)O1 (stereo not drawn) [Compound 9] | 0.22 | – | > 2000 | – | –
3 | COC[C@H]1C[C@H](c2ccc(OCc3cccc(Cl)c3)cc2)C(=O)O1 (relative stereo) [10 A] | 24 | 10 | > 2000 | – | –
4 | COCC1C=C(c2ccc(OCc3cccc(Cl)c3)cc2)C(=O)O1 (stereo not drawn) [Compound 11] | 2.3 | 1.6 | > 2000 | – | –
5 | COCC1C=C(c2ccc(OCc3ccccc3)cc2)C(=O)O1 (stereo not drawn) [Compound 20] | 4.4 | 4 | > 2000 | – | –
6 | COC[C@H]1C[C@H](c2ccc(OCc3ccc(F)c(Cl)c3)cc2)C(=O)O1 (relative stereo) [18 A] | 23 | 16 | – | – | –
7 | O=C(CCNNC(=O)c1ccncc1)NCc1ccccc1 [NIALAMIDE, reference compound] | – | – | 1100 | 4.5 | 5.2
8 | COCC1CC(c2ccc(OCc3cccnc3)cc2)C(=O)O1 (stereo not drawn) [Compound 15] | 5.8 | 12 | – | – | –
9 | C#CCN(C)C(C)Cc1ccccc1 (stereo not drawn) [reference compound] | – | – | 520 | 9 | 3
10 | COC[C@H]1C[C@H](c2ccc(OCc3cc(C#N)cc([N+](=O)[O-])c3)cc2)C(=O)O1 (relative stereo) [17 A] | 5.5 | 6.4 | > 2000 | – | –
11 | C#CCN(C)Cc1ccccc1 [PARGYLINE, reference compound] | 34 | 48 | 480 | – | –
12 | COC[C@H]1C[C@@H](c2ccc(OCc3ccccc3)cc2)C(=O)O1 (relative stereo) [5 B] | 11.5 | 15.5 | – | – | –
13 | COC[C@@H]1C[C@@H](c2ccc(OCc3cccc(C#N)c3)cc2)C(=O)O1 (relative stereo) [13 A] | 12 | 20 | > 2000 | – | –
14 | COCC1C=C(c2ccc(OCc3cccc(C#N)c3)cc2)C(=O)O1 (stereo not drawn) [Compound 14, 3-para(metacyanobenzyloxy)-phenyl-5-methoxymethyl-5H-furanone-2] | 0.68 | 0.55 | – | – | –
15 | COC[C@H]1C[C@@H](c2ccc(OCc3ccc(F)c(Cl)c3)cc2)C(=O)O1 (relative stereo) [18 B] | 5.4 | 3.1 | > 2000 | – | –
16 | COC[C@H]1C[C@@H](c2ccc(OCc3cccc([N+](=O)[O-])c3)cc2)C(=O)O1 (relative stereo) [8 B] | 0.58 | 0.29 | 2000 | – | –

Row | Structure (SMILES) | ED50 [1, 4] [mg/kg] | ED50 [2, 5] [mg/kg] | LD50 [3] [mg/kg] | ED50 ([1]; po) [mg/kg] | ED50 ([2]; po) [mg/kg]
17 | CC(=O)OC[C@H]1C[C@H](c2ccc(OCc3cccc([N+](=O)[O-])c3)cc2)C(=O)O1 (relative stereo) [7 A] | 12.5 | 10 | – | – | –
18 | N#Cc1cccc(COc2ccc(C3CC(CO)OC3=O)cc2)c1 (stereo not drawn) [Compound 12] | 10 | 16 | – | – | –
19 | COC[C@H]1C[C@H](c2ccc(OCc3cccc([N+](=O)[O-])c3)cc2)C(=O)O1 (relative stereo) [8 A] | 6.2 | 4.4 | > 2000 | – | –
20 | N[C@@H]1C[C@H]1c1ccccc1 (relative stereo) [TRANYLCYPROMINE, reference compound] | – | – | 58 | 1.55 | 1.37
21 | COC[C@H]1C[C@@H](c2ccc(OCc3cc(C#N)cc([N+](=O)[O-])c3)cc2)C(=O)O1 (relative stereo) [17 B] | 0.32 | 0.55 | 1700 | – | –
22 | CC(C)CCOc1ccc(C2CC(CO)OC2=O)cc1 (stereo not drawn) [Compound 1] | 19 | 14 | – | – | –
23 | O=C1OC(CO)CC1c1ccc(OCC2CCCCC2)cc1 (stereo not drawn) [Compound 2] | 5.5 | 9 | > 2000 | – | –
24 | O=C1O[C@@H](CO)C[C@@H]1c1ccc(OCc2cccc([N+](=O)[O-])c2)cc1 (relative stereo) [6 A] | 4.4 | 5.8 | > 2000 | – | –
25 | COCC1CC(c2ccc(OCCCCC#N)cc2)C(=O)O1 (stereo not drawn) [Compound 4] | 0.3 | 0.19 | > 2000 | – | –
26 | N#Cc1cc(COc2ccc(C3CC(CO)OC3=O)cc2)cc([N+](=O)[O-])c1 (stereo not drawn) [Compound 16] | 1.2 | 3.5 | > 2000 | – | –
27 | CC(=O)OC[C@H]1C[C@@H](c2ccc(OCc3cccc([N+](=O)[O-])c3)cc2)C(=O)O1 (relative stereo) [7 B] | 2.5 | 3.2 | > 2000 | – | –
28 | COC[C@H]1C[C@@H](c2ccc(OCc3cccc(Cl)c3)cc2)C(=O)O1 (relative stereo) [10 B] | 15 | 10 | > 2000 | – | –
29 | COCC1C=C(c2ccc(OCc3ccc(F)c(Cl)c3)cc2)C(=O)O1 (stereo not drawn) [Compound 19] | 2.1 | 2.4 | > 2000 | – | –
30 | COC[C@@H]1C[C@H](c2ccc(OCc3cccc(C#N)c3)cc2)C(=O)O1 (relative stereo) [13 B] | 0.9 | 1.7 | > 2000 | – | –
31 | O=C1O[C@@H](CO)C[C@H]1c1ccc(OCc2cccc([N+](=O)[O-])c2)cc1 (relative stereo) [6 B] | 1.6 | 2 | > 2000 | – | –
32 | COC[C@H]1C[C@@H](c2ccc(OCCCCCl)cc2)C(=O)O1 (relative stereo) [3 B] | 3.6 | 1.7 | 2000 | – | –
